Experimental data taken from patent publication US5667825A (Kellogg Company, priority 1996, dated 1997).
“Also recorded” adds a separate entry of the source.

How the values were obtained:
[1] = in some diets; cited from earlier work
[2] = Oxidative stability of iron fortified cereals in hot room (hexanal, rancid odor, off odor); type: physicochemical; conditions: for Off Odor Value / Rancid Odor Value / Hexanal Value: measured at two and four weeks (interval of value not stated); for Hexanal Value: ± 95% confidence interval
Method: The feasibility of using other iron sources was also tested. […] The individual tests are discussed in further detail below.
These samples were used for comparative stability and sensory analysis.
In order to test the stability of the iron fortified cereals, the R-T-E cereal samples prepared using four different sources of iron were placed in a hot room and exposed to a temperature of 100° F. over a four week period. Measurements were taken at two and four week intervals.

Sprague Dawley rats = assay: Rat hemoglobin regeneration method, relative iron bioavailability (modified AOAC); type: in vivo
Method: The relative iron availability of various iron compounds in a ready-to-eat breakfast cereal was tested using a widely accepted method, commonly referred to as the rat hemoglobin regeneration method, (modified AOAC method for assessment of relative iron bioavailability), see Williams, S. ed. Official methods of analysis of the Association of Official Analytical Chemists, 14th ed. Arlington, Va. AOAC, 1984; Fritz, J. C. et al., Collaborative Study of rat hemoglobin repletion test for bioavailability of iron, AOAC 1974, 57: 513-517. The testing for relative bioavailability of the various iron compounds was carried out in a series of separate experiments. In each of these experiments, ferrous sulfate was used as the standard or control compound.
Sprague Dawley rats, individually housed in temperature and light controlled units, were fed an iron deficient diet obtained from Harland Tekland Laboratories for 24 days. After this iron depletion phase, the rats were weighed and blood was drawn to test for baseline hemoglobin concentrations. These anemic animals, with hemoglobin levels between […], were then randomly assigned to the control and test groups. Ferrous sulfate and the iron compounds in the cereal were added at concentrations of 6 and 18 and 24 mg iron/kg to the control and test diets. These diets were then fed to groups of ten animals, ad libitum, for 14 days. Iron levels in the diets, were verified by atomic absorption spectrometry (Bolin et al., J. Assoc. Off. Anal. Chem. 1977, 60: 1170-1174). After the 14 day test period, hemoglobin concentrations were determined for all animals.
The bioavailability of each iron source tested relative to ferrous sulfate, was calculated by comparing gain in hemoglobin with the iron concentration in the diet by the slope ratio procedure (Finney, D. J., Statistical methods in biological assay. 2nd ed. 1964; Amine et L., Biological assessment of available iron in food products, J. Agric. Food Chem. 1974, 22: 470-476.). […]

Row | Compound | Bioavailability versus FeSO4 complex [1] | Stability in continuing stability tests ([2]; expected in continuing tests) | Oxidative stability (rancid odor, off odor, hexanal), result in words ([2]; hot room 100° F., four weeks) | Off Odor Value ([2]; hot room 100° F.) | Rancid Odor Value ([2]; hot room 100° F.) | Hexanal Value ([2]; hot room 100° F.) | Slope Value (gain in hemoglobin vs iron concentration in the diet) (Sprague Dawley rats; 6, 18 and 24 mg iron/kg diet, 14 days, ± 95% confidence interval) | Iron bioavailability / absorption, result in words (Sprague Dawley rats; anemic rats, versus ferrous sulfate and reduced iron) | Slope Ratio (bioavailability relative to ferrous sulfate) (Sprague Dawley rats; rat, in vivo, 20160 min)
1 | O=C([O-])CN(CCN(CC(=O)[O-])CC(=O)[O-])CC(=O)[O-].[Fe+3].[Na+] [Ferric EDTA, sodium ferric ethylenediaminetetraacetic acid complex] | two to three times more bioavailable | expected to improve in stability in comparison to the other ferric samples tested | statistically significant lower level of rancid odor, off odor and hexanal value; also recorded: most stable of the products tested with the lowest hexanal, rancid odor and off odor values | 0.78 ± 0.44 | 0.56 ± 0.43 | 0.40 ± 0.22 | 0.31 ± 0.03 | absorbed at a rate not significantly different from ferrous sulphate and significantly better than reduced iron; also recorded: superior in bioavailability to reduced iron | –
2 | O=C([O-])/C=C/C(=O)[O-].[Fe+2] [Ferrous Fumarate, ferrous fumarate, reference compound] | – | – | – | 2.67 ± 0.41 | 2.89 ± 0.62 | 2.37 ± 1.00 | – | – | –
3 | ferrous sulfate [reference compound] | – | – | – | 2.33 ± 0.48 | 1.22 ± 0.57 | 2.13 ± 2.02 | – | – | 1.00
